This is an account of results in US20180344725A1, “QUINOLONE CHALCONE COMPOUNDS AND USES THEREOF” (priority 2015, published 2018).

One assay relates to MCF-7. The assay is described as follows: SRB-based cytotoxicity assay. The assay is classed as cell-based, human. To be noted: Homo sapiens, MCF7; MCF-7; SRB; Table 2. The protocol:
(§1) For (anti)proliferation assays, 4,000-5,000 cells/well of the 96-well clustered dish were incubated for 16 hours, as described previously (Hu et al., 2008; Skehan et al., 1990). After 16 hours, culture medium was replaced with fresh medium containing different dilutions of test compounds dissolved in DMSO. Some wells were treated with 100 μl of 10% trichloroacetic acid (TCA) as a negative control and sham (medium with dimethyl sulfoxide; DMSO) treated cells were used as a positive control. After 72 hours post-incubation, medium was removed and cells were fixed with 10% TCA at 4° C. for 1 hour. TCA was removed and cells were washed with cold tap water, and plate was air-dried, followed by addition of 50 μl of 0.4% SRB staining solution to each well. After 30 minutes incubation, SRB staining solution was removed. Cells were washed with 1% acetic acid solution, and then washed with tap water to remove unbound staining solution, followed by air-drying. 200 μl of 10 mM (pH10.5) trizma base buffer was added to each well to solubilise macromolecules. SRB stained macromolecules were determined at a 540 nm wavelength using an automated plate reader (Synergy H4 Hybrid Multi-Mode Microplate Reader, BioTek, Winooski, Vt.). Cell growth (inhibition) was calculated by the following formula:
(§2) % cells proliferation=[(AT−CT)/(ST−CT)]×100
(§3) wherein AT=absorbance of treated cells, CT=absorbance of negative control cells, and ST=absorbance of sham treated cells. IC50 values were calculated from sigmoidal dose-response curves generated by two independent biological replicates, with quadruplicate in each set by using Graph Pad Prism v.5.04 software. […] The combinational index (CI) was calculated as described previously (Chou 2006). If the CI values were less than, equal to or more than 1, it indicates a synergistic, additive or antagonistic effect respectively (Chou 2006). CI values were determined from four independent experiments.

The next assay deals with MDA-MB-231. The assay is described as follows: SRB-based cytotoxicity assay. The assay is classed as cell-based, human. As to conditions: Homo sapiens; MDA-MB-231; SRB; Table 2. The protocol: as §1, §2, §3
For the next assay, the system named is MDA-MB-468. Put plainly: SRB-based cytotoxicity assay. The format is cell-based, human. To be noted: Homo sapiens; MDA-MB-468; SRB; Table 2. The protocol:
as §1, §2, §3

The test system of another assay is 184B5. The assay is described as follows: SRB-based cytotoxicity assay. The assay is classed as cell-based. To be noted: Homo sapiens; 184B5 non-cancer; SRB; Table 2. The protocol:
as §1, §2, §3

Another assay relates to K562. The assay is described as follows: SRB-based cytotoxicity assay. The format is cell-based. To be noted: Homo sapiens, Table 2. The protocol:
as §1, §2, §3

Assay [1] concerns MDA-MB-231 human metastatic breast cancer cells. Put plainly: Anti-tumor activity in xenograft mice. As to conditions: Tax 10 mg/kg I.V. once/week, CTR 30 mg/kg I.P. every 3 days, or Tax 5 + CTR 15 mg/kg once/week. The format is in vivo. The protocol: Five-week old female CD-1 and ATH490 (strain code 490) athymic nude mice were purchased from Charles River (Quebec, Canada). The MDA-MB-231 human metastatic breast cancer cells were obtained from the American Tissue Culture Collection (ATCC, Manassas, Va., USA). Cells were maintained under humidified conditions at 37° C. and 5% CO2 in DMEM high glucose medium (ATCC) supplemented with 10% fetal bovine serum and antibiotics.
For paclitaxel treatments, 40 mg/ml stock solution of paclitaxel (Sigma, MO) was prepared in DMSO. Just before administration to mice, the paclitaxel stock solution was diluted ten-fold in a buffer containing 10% DMSO, 12.5% Cremophor, 12.5% ethanol, and 65% saline-based diluent (0.9% sodium chloride, 5% polyethylene glycol, and 0.5% tween-80) which is defined as vehicle (Huang et al., 2006). Alanine transaminase (ALT, SUP6001-c)/Aspartate transaminase (AST, SUP6002-c) color endpoint assay kits were purchased from ID Labs Biotechnology (London, Ontario, Canada). Elevation of ALT and AST levels in serum samples was used as an indicator of liver damage/injury.
To determine the anti-tumor activity of CTR compounds in animals, a xenograft model of human breast cancer cells in athymic nude mice was established. Exponentially growing MDA-MB-231 metastatic breast cancer cells were harvested and counted for inoculation into mice. Each mouse was subcutaneously injected at the flank with 10×10^6 cells in 0.2 ml ice cold 1×PBS. When tumor size reached 4-5 mm in diameter (n=4-5 per group), mice were randomly assigned into several groups as described herein.
Animals were monitored for food and water consumption every day, and their body weights and tumor volumes were measured twice per week. Tumor volumes were measured with a digital caliper and were determined by using the following formula: ½ length×width^2. Blood samples were collected via cardiac puncture and processed further for ALT and AST measurements. The animals were then immediately euthanized by carbon dioxide. Tumors and vital organs (spleen, kidney, liver and lung) were collected and fixed in 10% buffered formalin at 4° C. overnight before being processed for paraffin embedding. The paraffin-embedded blocks were then cut into 4-5 μm thick sections. Each section of tumors and organs was stained with hematoxylin and eosin (H&E).

The subject of a further assay is KB-C-1. Put plainly: SRB-based cytotoxicity assay. The assay is classed as cell-based. To be noted: Homo sapiens, KBC-1; KB-C-1, multidrug naïve. The protocol:
(§4) 1845B5 and MCF-10A non-cancer breast cell lines were cultured in DME/F12 medium supplemented with 10% fetal bovine serum, antibiotics and growth factors. […] The human small cell lung carcinoma H69 cell line and its multidrug-resistant MRP1-overexpressing isogenic H69AR cell line were purchased from ATCC. […] H69 cells grow as large multi-cell aggregates, making it difficult to accurately count cell numbers. […] The IL-6 dependent bortezomib-resistant ANBL6-BR cell line was further supplemented with 1 ng/ml of IL-6. The MCF10AT1 and MCF10CA1a cell lines are isogenic to the MCF10A cell line, and obtained from Dr. Valerie Weaver at the Center for Bioengineering and Tissue Regeneration, UCSF, CA, USA. […] The drug-resistant cells were cultured in the absence of drug for at least one passage before carrying out experiments. All cells were maintained in a humidified incubator at 37° C. […] Cell line authentication was performed using short tandem repeat (STR) profiling. […] Some wells were treated with 100 μl of 10% trichloroacetic acid (TCA) as a negative control and sham (medium with dimethyl sulfoxide; DMSO) treated cells were used as a positive control. […] TCA was removed and cells were washed with cold tap water, and plate was air-dried, followed by addition of 50 μl of 0.4% SRB staining solution to each well. After 30 minutes incubation, SRB staining solution was removed. Cells were washed with 1% acetic acid solution, and then washed with tap water to remove unbound staining solution, followed by air-drying. 200 μl of 10 mM (pH10.5) trizma base buffer was added to each well to solubilise macromolecules. […] Cell growth (inhibition) was calculated by the following formula: % cells proliferation=[(AT-CT)/(ST-CT)]×100 wherein AT=absorbance of treated cells, CT=absorbance of negative control cells, and ST=absorbance of sham treated cells. […] CI values were determined from four independent experiments.

The subject of the next assay is KB-C-2. The assay is described as follows: SRB-based cytotoxicity assay, single and combination with paclitaxel. The assay is classed as cell-based, human. As to conditions: KB-C-2 versus KB-C-1. The protocol:
as §4

Another assay deals with H69AR. Put plainly: SRB-based cytotoxicity assay. The assay is classed as cell-based, human. To be noted: H69AR versus SW-1271. The protocol: as §4

Turning to `COc1ccc2cc(/C=C/C(=O)c3ccccc3OC)c(=O)[nH]c2c1` [CTR-19, (E)-7-Methoxy-3-(3-(2-methoxyphenyl)-3-oxoprop-1-enyl) quinolin-2(1H)-one], the IC50 (usually the concentration that inhibits the measured activity by half) with MCF-7 was 1930 nM; in the assay with MDA-MB-231 it was 5.11 µM; with MDA-MB-468, 1910 nM; with 184B5 it was 3.94 µM; with K562, 950 ± 650 nM. Further, the “tumor size (volume)” value in [1] (Day 0) stood at 92.51 mm^3; in assay [1] (Day 6), 84.79 mm^3; in assay [1] (Day 14) it was 99.68 mm^3; in assay [1] (Day 17), 92.27 mm^3; in assay [1] (Day 20) it was 115.39 mm^3; in assay [1] (Day 24) it was 124.76 mm^3. In addition, the “tumor size (volume)” value turned out to be 143.62 mm^3 in [1] (Day 27) and 200.77 mm^3 in assay [1] (Day 30).

Consider `COc1ccccc1C(=O)/C=C/c1cc2cc(C)ccc2[nH]c1=O` [CTR-18, (E)-3-(3-(2-Methoxyphenyl)-3-oxoprop-1-enyl)-6-methylquinolin-2(1H)-one], for which the half-maximal inhibitory concentration (IC50) with MCF-7 is 120 nM; in the assay on MDA-MB-231, 0.93 µM; with MDA-MB-468, 80 nM; in the assay with 184B5, 3.89 µM; with K562, 210 ± 20 nM. Moreover, the “tumor size (volume)” value is 92.51 mm^3 in assay [1] (Day 0); 111.09 mm^3 in assay [1] (Day 6); 138.10 mm^3 in assay [1] (Day 14); 145.48 mm^3 in assay [1] (Day 17); 166.84 mm^3 in assay [1] (Day 20); 143.78 mm^3 in assay [1] (Day 24). Besides, the entries for the “tumor size (volume)” value in assay [1] (Day 27) and in assay [1] (Day 30) were 141.52 mm^3 and 253.37 mm^3, respectively.

The compound `CC[C@]1(O)C[C@@H]2CN(CCc3c([nH]c4ccccc34)[C@@](C(=O)OC)(c3cc4c(cc3OC)N(C)[C@H]3[C@@](O)(C(=O)OC)[C@H](OC(C)=O)[C@]5(CC)C=CCN6CC[C@]43[C@@H]65)C2)C1` [Vinblastine, reference compound] gave a half-inhibitory concentration (IC50) with KB-C-1 of 0.61 ± 0.09 nM. Moreover, the “Resistance (fold)” value in the assay on KB-C-2 is reported as 15.20 fold; in the assay with H69AR it was 5.82 fold.
